Target: T1, recombinant human CETP (Homo sapiens, UniProt P11597)
T1 construct: made in house; host or cells: CHO cells (protein secreted into conditioned medium)
T1 sequence (P11597 18-493): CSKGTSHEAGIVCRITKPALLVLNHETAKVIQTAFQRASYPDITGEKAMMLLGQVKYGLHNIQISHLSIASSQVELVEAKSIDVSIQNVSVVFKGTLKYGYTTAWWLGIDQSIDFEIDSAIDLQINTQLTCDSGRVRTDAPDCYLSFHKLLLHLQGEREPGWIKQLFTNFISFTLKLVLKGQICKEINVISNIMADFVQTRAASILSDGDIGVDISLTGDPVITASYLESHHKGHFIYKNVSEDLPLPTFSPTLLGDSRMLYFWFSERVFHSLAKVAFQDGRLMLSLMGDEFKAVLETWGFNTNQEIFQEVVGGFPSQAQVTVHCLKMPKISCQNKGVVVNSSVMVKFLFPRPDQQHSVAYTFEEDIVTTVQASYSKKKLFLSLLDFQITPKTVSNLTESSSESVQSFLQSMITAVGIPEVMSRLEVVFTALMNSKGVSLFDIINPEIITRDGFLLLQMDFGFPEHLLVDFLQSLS
Test: CETP in vitro fluorometric assay (Roar Biomedical), cholesterol ester transfer from HDL to LDL
Assay type: biochemical
Conditions: recombinant human CETP from CHO cells; 3 hours at 37° C.; fluorescence ex 485 nm / em 535 nm; compound concentrations between 1 nM and 30 μM; read-out: IC50 values for inhibition of CETP
Description: CETP inhibitory activity of compounds of the present invention can be determined in a fluorometric assay puchased from Roar Biomedical, Inc. (New York, N.Y., USA). […] Recombinant human CETP was partially purified from medium conditioned by CETP expressing CHO cells. In a 384 well format 2.5 μl of compound solution in DMSO was combined with 2 μl of donor solution, 2 μl of acceptor solution and 0.8 μl of recombinant human CETP solution in a total volume of 100 μl with assay buffer and incubated for 3 hours at 37° C. The fluorescence intensity was measured at excitation wavelength of 485 nm and emission wavelength of 535 nm. IC50 values are calculated from dose effect curves from compound concentrations between 1 nM and 30 μM.

IC50: 62 nM
Structure (SMILES): CC(C)(C)c1ccc([C@H]2OC3(CCCC3)c3c2c(C2CCOCC2)nc2c3[C@@H](O)CC(C)(C)[C@H]2O)cc1 [Example 4, (3′R,6′R,9′S)-3′-(4-tert-butylphenyl)-7′,7′-dimethyl-4′-(tetrahydro-2H-pyran-4-yl)-6′,7′,8′,9′-tetrahydro-3′H-spiro[cyclopentane-1,1′-furo[3,4-c]quinoline]-6′,9′-diol]
